We go through one substance from patent publication US20260200976A1, “PEPTIDE HAVING ACTIVITY OF IMPROVING STATE OF SKIN, AND USE THEREOF” (CAREGEN CO., LTD., priority 2022, published 2026).

One assay relates to aquaporin-3 (AQP3). Put plainly: Expression of skin barrier factor AQP3, RT-PCR in HaCaT cells. The format is cell-based. Conditions: 50 μM or 1000 μM peptide, 24 hours, FIG. 4 and FIG. 5. How it is done: (§1) In this example, the aim was to confirm the effect of the peptides according to an example on strengthening the skin barrier, by evaluating the expression levels of sirtuin-1 (SIRT-1) or aquaporin-3 (AQP3).
(§2) Specifically, HaCaT cells were seeded in a 6-well plate at a density of 3×10^5 cells/well and cultured for 24 hours. Next, the cells were washed once with serum-free DMEM media, and 50 μM or 1000 μM of a peptide consisting of an amino acid sequence of SEQ ID NO: 1 was dispensed into 1 mL of the serum-free media, and cultured in a CO2 incubator at 37° C. for 24 hours. Next, the culture was washed twice with PBS, and RNA was isolated from the culture using easy blue (iNtRON, Cat. No.: 17061, Korea). Next, using an RT kit (Enzynomics, Cat. NO.: RT200, Korea), the isolated RNA was reverse transcribed to synthesize the respective cDNA. Next, using the synthesized 1 μg cDNA, primers for SIRT-1 or AQP3, and a PCR kit (Enzynomics, Cat. No.: P581T, Korea), polymerase chain reaction (PCR) was performed. Meanwhile, in this example, an untreated group was used as a control group, and a group to which EGF was added was used as a positive control group, the nucleotide sequences of the primers used in this example are shown in Table 3 below.

Another assay has as its system elastin. Put plainly: Expression of extracellular matrix component elastin, RT-PCR in NIH3T3 cells. It is filed as cell-based, mouse. Conditions: 10 μM or 50 μM peptide, 24 hours, FIG. 2 and FIG. 3. The protocol:
(§3) In this example, the aim was to confirm the effect of the peptide according to an example on improving endogenous skin aging, including improvement of wrinkles and enhancement of elasticity, etc., by evaluating the expression levels of collagen type 1 (Col1a1), fibronectin, and elastin, which are known components of the dermis.
(§4) Specifically, NIH3T3 cells were seeded in a 6-well plate at a density of 3×10^5 cells/well and cultured for 24 hours. Next, the cells were washed once with serum-free DMEM media, and 10 μM or 50 μM of a peptide consisting of an amino acid sequence of SEQ ID NO: 1 was dispensed into 1 mL of the serum-free media, and cultured in a CO2 incubator at 37° C. for 24 hours. Next, the culture was washed twice with PBS, and RNA was isolated from the culture using easy blue (iNtRON, Cat. No.: 17061, Korea). Next, using an RT kit (Enzynomics, Cat. NO.: RT200, Korea), the isolated RNA was reverse transcribed to synthesize the respective cDNA. Next, using the synthesized 1 μg cDNA, primers for Col1a1, fibronectin, or elastin, and a PCR kit (Enzynomics, Cat. No.: P581T, Korea), polymerase chain reaction (PCR) was performed. Meanwhile, in this example, an untreated group was used as a control group, and a group to which TGF-β1 was added was used as a positive control group, the nucleotide sequences of the primers used in this example are shown in Table 2 below.

The subject of assay [1] is HaCaT cells. Put plainly: Inhibition of apoptosis induced by ultraviolet rays, MTT survival rate, HaCaT. The format is cell-based. Conditions: 50 μM or 100 μM peptide, 15 m J/cm2 ultraviolet rays, FIG. 7. The protocol:
(§5) In this example, the aim was to confirm the effect of the peptide according to an example on the inhibition of apoptosis or cell recovery of skin cells induced by ultraviolet rays, by evaluating the change in survival rate of skin cells whose apoptosis was induced by ultraviolet irradiation.
(§6) Specifically, NIH3T3 cells or HaCaT cells were seeded in a 96-well plate at a density of 1×10^4 cells/well and cultured for 24 hours. Next, the cells were washed once with serum-free DMEM media, and 50 μM or 100 μM of the peptide consisting of an amino acid sequence of SEQ ID NO: 1 was dispensed into 200 μL of the medium. The culture medium dispensed with the peptide was cultured in a CO2 incubator at 37° C. for 1 hour, transferred to an e-tube, mixed with 100 ul of PBS, and dispensed into a well plate. Next, using a UV irradiator (VILBER LOURMAT, Cat No.: 3102-BSU, France), 6 J/cm2 ultraviolet rays were irradiated to NIH3T3 cells, and […] ultraviolet rays were irradiated to HaCaT cells. Next, PBS in the well plate was removed, MTT (Sigma, Cat. No.: M2003, USA) solution was dispensed into each well at 0.5 mg/ml, and cultured in a CO2 incubator at 37° C. for […]. Next, the absorbance of the culture was measured at 540 nm using a microplate reader (Molecular Devices, USA). […]

Assay [2] relates to NIH3T3 cells. Put plainly: Inhibition of apoptosis induced by ultraviolet rays, MTT survival rate, NIH3T3. Conditions: 50 μM or 100 μM peptide, 6 J/cm2 ultraviolet rays, FIG. 6. The format is cell-based, mouse. How it is done: as §5, §6
In assay [3] the test system is HaCaT cells. Put plainly: Reduction of reactive oxygen species increased by ultraviolet rays, DCF-DA flow cytometry, HaCaT. The format is cell-based. The following applies: 50 μM or 1000 μM peptide, 15 J/cm2 ultraviolet rays, 24 hours, FL1 fluorescence, FIG. 9. How it is done:
(§7) In this example, the aim was to confirm the effect of the peptide according to an embodiment on the antioxidant effect in damaged skin, by evaluating the change in the level of reactive oxygen species in skin cells increased by ultraviolet irradiation.
(§8) Specifically, NIH3T3 cells or HaCaT cells were seeded in a 6-well plate at a density of 5×10^5 cells/well and cultured for 24 hours. Next, the cells were washed once with serum-free DMEM media, and 50 μM or 1000 μM of a peptide consisting of an amino acid sequence of SEQ ID NO: 1 was dispensed into 1 mL of the serum-free media, and cultured in a CO2 incubator at 37° C. for […]. Next, the above culture was transferred to an e-tube, mixed with 1 ml of PBS, and dispensed into a well plate. Next, using a UV irradiator (VILBER LOURMAT, Cat No.: 3102-BSU, France), 6 J/cm2 ultraviolet rays were irradiated to NIH3T3 cells, and 15 J/cm2 ultraviolet rays were irradiated to HaCaT cells. Next, the PBS in the well plate was removed, 900 μL of the culture medium in which the peptides were dispensed was added, and the plate was cultured in a CO2 incubator at 37° C. for 24 hours. […] After washing the centrifuged cells with PBS, FL1 fluorescence values were measured through flow cytometry (FACS, BD, USA). […]
Background: In flow cytometry, cells or beads pass a laser one at a time.

A further assay deals with fibronectin. Put plainly: Expression of extracellular matrix component fibronectin, RT-PCR in NIH3T3 cells. It is filed as cell-based, mouse. The following applies: 10 μM or 50 μM peptide, 24 hours, FIG. 2 and FIG. 3. How it is done: as §3, §4
For assay [4], the system named is NIH3T3 cells. Put plainly: Proliferation of skin cells, MTT survival rate. It is filed as cell-based, mouse. The following applies: 50 μM or 100 μM peptide, 72 hours, FIG. 1. How it is done: In this example, the aim was to confirm the effect of a peptide according to an example on proliferation of skin cells, by evaluating changes in survival rate of NIH3T3 cells, which are mouse fibroblasts.
Specifically, NIH3T3 cells were seeded in a […] at a density of 1×10^4 cells/well and cultured for 24 hours. Next, the cells were washed once with serum-free DMEM media, and 50 μM or 100 μM of a peptide consisting of an amino acid sequence of SEQ ID NO: 1 was dispensed into 200 μL of the serum-free media, and cultured in a CO2 incubator at 37° C. for 72 hours. Next, the culture was washed twice with PBS, and MTT solution was dispensed into each well at a concentration of 0.5 mg/ml. Next, it was shaded from light and cultured in a CO2 incubator at 37° C. for 4 hours, and the absorbance at 540 nm was measured using a microplate reader (Molecular Devices, USA).

Assay [5] has as its system NIH3T3 cells. Put plainly: Reduction of reactive oxygen species increased by ultraviolet rays, DCF-DA flow cytometry, NIH3T3. It is filed as cell-based, mouse. Conditions: 50 μM or 1000 μM peptide, 6 J/cm2 ultraviolet rays, 24 hours, FL1 fluorescence, FIG. 8. The protocol: as §7, §8
The test system of a further assay is collagen type 1 (Col1a1). Put plainly: Expression of extracellular matrix component Col1a1, RT-PCR in NIH3T3 cells. It is filed as cell-based, mouse. Conditions: 10 μM or 50 μM peptide, 24 hours, FIG. 2 and FIG. 3. How it is done:
as §3, §4

The test system of the next assay is sirtuin-1 (SIRT-1). Put plainly: Expression of skin barrier factor SIRT-1, RT-PCR in HaCaT cells. It is filed as cell-based. The following applies: 50 μM or 1000 μM peptide, 24 hours, FIG. 4 and FIG. 5. The protocol:
as §1, §2

Consider EVVDI [SEQ ID NO: 1], for which the “expression of AQP3” value in the assay on aquaporin-3 (AQP3) was “increased”. The expression of elastin result with elastin is “increased”. Also, in the assay on HaCaT cells [1], the “cell survival rate of keratinocytes reduced by ultraviolet irradiation” value was “restored”. Besides, the “cell survival rate of fibroblasts reduced by ultraviolet irradiation” value with NIH3T3 cells [2] was “restored”. In addition, the “level of reactive oxygen species in keratinocytes increased by ultraviolet irradiation” value in the assay on HaCaT cells [3] is reported as “reduced”. The expression of fibronectin entry in the assay on fibronectin is “increased”. Besides, the “proliferation of fibroblasts (cell survival rate)” value in the assay on NIH3T3 cells [4] is “promoted”. Further, the “level of reactive oxygen species in fibroblasts increased by ultraviolet irradiation” value with NIH3T3 cells [5] is given as “reduced”. Moreover, in the assay with collagen type 1 (Col1a1), the “expression of Col1a1” value is “increased”. Also, the “expression of SIRT-1” value with sirtuin-1 (SIRT-1) is “increased”.
